Where “and” joins values, the source holds several entries; their conditions need not be identical. Identical values can stand only once.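 Step 1: Grow cells in 96-well plates. Step 2: Expose to compound for 48 hours at 5 concentrations. Step 3: Interpolate endpoints linearly; if unreached, use highest concentration. Here, GI50 denotes the concentration required for 50% inhibition of growth. TGI denotes the concentration required for complete inhibition of growth.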

Among the test systems are ACHN renal; CAKI-1 renal; HCC-2998 colon; KM12 colon; M14 melanoma; MOLT-4 leukemia; NCI-H522 lung; TK-10 renal; LOX IMVI melanoma.
Holding throughout (assay): NCI-60 cell line screen, 48 h

For the compound `COc1cc(C(=O)C/C(CCC(=O)Nc2ccc(Cl)cc2Cl)=N/NC(=O)C(N)=O)ccc1O`, the TGI with ACHN renal, with CAKI-1 renal, in the experiment on HCC-2998 colon, with KM12 colon, in the experiment with M14 melanoma and with MOLT-4 leukemia was more than 100 µM in each case. For the same compound, the TGI with NCI-H522 lung and with TK-10 renal was more than 100 µM each time.

With `CCC[CH2][Sn]([CH2]CCC)([O]C(=O)c1cc(OC)c(OC)cc1OC)[O]C(=O)c1cc(OC)c(OC)cc1OC`, the GI50 with ACHN renal was 1.62 µM; in the experiment on CAKI-1 renal, 0.419 µM; in the experiment on KM12 colon, 1.75 µM; with LOX IMVI melanoma it was 1.04 µM; with M14 melanoma, 1.51 µM; in the experiment with MOLT-4 leukemia it was 0.747 µM. The GI50 is 0.373 µM in the experiment on NCI-H522 lung and 1.5 µM in the experiment on TK-10 renal. Also, the TGI worked out at 3 µM in the experiment with ACHN renal; 1.63 µM in the experiment with CAKI-1 renal; 4.07 µM in the experiment on KM12 colon; 3.34 µM in the experiment with LOX IMVI melanoma; 2.99 µM with M14 melanoma; 6.43 µM in the experiment with MOLT-4 leukemia. Also, the TGI in the experiment on NCI-H522 lung came to 1.14 µM; in the experiment with TK-10 renal it was 2.84 µM.

On to `COc1c(NC(=O)CC(C)=O)[c]([Hg][O]C(C)=O)c(OC)c(Cl)[c]1[Hg][O]C(C)=O`, for which the GI50 was 13 µM in the experiment with ACHN renal; 13 µM in the experiment with CAKI-1 renal; 18.8 µM in the experiment on HCC-2998 colon; 13.8 µM in the experiment with KM12 colon; 13 µM with M14 melanoma; 19 µM with MOLT-4 leukemia. Also, the GI50 is 2.07 µM with NCI-H522 lung and 12.8 µM in the experiment with TK-10 renal. Besides, the TGI with ACHN renal was 25.6 µM; in the experiment on CAKI-1 renal, 25.6 µM; with HCC-2998 colon, 34.3 µM; in the experiment on KM12 colon, 26.7 µM; with M14 melanoma it was 25.7 µM; in the experiment with MOLT-4 leukemia, 64.4 µM. The TGI with NCI-H522 lung is 7.04 µM; with TK-10 renal it was 25.3 µM.

`Cc1ccc(S(=O)(=O)SCc2ccccc2CSS(=O)(=O)c2ccc(C)cc2)cc1`: the TGI in the experiment with ACHN renal was more than 100 µM; with CAKI-1 renal, 58.5 µM; in the experiment on HCC-2998 colon it was more than 100 µM; with KM12 colon, more than 100 µM; with LOX IMVI melanoma, 29.4 µM; in the experiment on M14 melanoma it was 47.3 µM. Besides, the TGI in the experiment with MOLT-4 leukemia was 43.9 µM; in the experiment with NCI-H522 lung it was 22.8 µM; with TK-10 renal it was more than 100 µM.

As for `O=C(Nc1nc2ccccc2n1Cc1ccc(Cl)cc1)NC12CC3CC(CC(C3)C1)C2`, the TGI in the experiment with ACHN renal, in the experiment with CAKI-1 renal, in the experiment with HCC-2998 colon, with KM12 colon, in the experiment on LOX IMVI melanoma and in the experiment with M14 melanoma was more than 100 µM each time. The TGI in the experiment with MOLT-4 leukemia was more than 100 µM; in the experiment with NCI-H522 lung it was 42.7 µM; with TK-10 renal, more than 100 µM.

In the case of `COc1cc(/C=C/c2ccc(OC(C)=O)cc2)cc(OC)c1OC`, the TGI was 78.6 µM in the experiment with ACHN renal; more than 100 µM with CAKI-1 renal; more than 100 µM with KM12 colon; 94.1 µM in the experiment on LOX IMVI melanoma; more than 100 µM in the experiment with M14 melanoma; 75.7 µM with MOLT-4 leukemia. The TGI is 81.9 µM in the experiment with NCI-H522 lung and more than 100 µM with TK-10 renal.

For the compound `CC(=O)C1C(=O)C(=O)N(c2ccccc2N2C(=O)C(=O)C(C(C)=O)C2=O)C1=O` (stereo unspecified), the TGI in the experiment on ACHN renal, with CAKI-1 renal, in the experiment on HCC-2998 colon, with KM12 colon, with LOX IMVI melanoma and in the experiment on M14 melanoma was more than 100 µM throughout. For the same compound, the TGI in the experiment with MOLT-4 leukemia, in the experiment on NCI-H522 lung and in the experiment on TK-10 renal was more than 100 µM each time.

For `CCOC(=O)[C@H]1Nc2ccc(Cl)cc2[C@H]2OCC[C@@H]12`, the TGI in the experiment with ACHN renal, in the experiment with CAKI-1 renal, in the experiment on HCC-2998 colon, with KM12 colon, in the experiment with LOX IMVI melanoma and with M14 melanoma was more than 100 µM throughout. In addition, the TGI in the experiment on MOLT-4 leukemia, in the experiment on NCI-H522 lung and with TK-10 renal was more than 100 µM each time.

Take `Cc1ccc(NC(=O)CC/C(CC(=O)c2ccc(F)cc2)=N\NC(=O)C(=O)NN)cc1C`: the TGI with ACHN renal, with CAKI-1 renal, in the experiment on HCC-2998 colon, with KM12 colon, with LOX IMVI melanoma and with M14 melanoma was more than 100 µM in each case. In addition, the TGI in the experiment with NCI-H522 lung and with TK-10 renal was more than 100 µM in each case.

Turning to `CCCCCCCCCC1C(C)c2c([nH]c3ccccc23)C2C(=O)N(c3ccccc3)C(=O)C21` (stereo unspecified), the TGI came to 22.8 µM with ACHN renal; 28.8 µM in the experiment with CAKI-1 renal; 25.7 µM in the experiment with HCC-2998 colon; 16.2 µM in the experiment with KM12 colon; 28.7 µM with M14 melanoma; 9.44 µM in the experiment on MOLT-4 leukemia. The compound also gave a TGI with TK-10 renal of 73.5 µM.

For the compound `Cc1ccccc1NC(=O)C1C(=O)N(c2ccccc2C)C(=O)/C1=N\N` (stereo unspecified), the TGI with ACHN renal, in the experiment on CAKI-1 renal, in the experiment on HCC-2998 colon, with KM12 colon, in the experiment with LOX IMVI melanoma and in the experiment on M14 melanoma was more than 100 µM each time. Also, the TGI in the experiment with MOLT-4 leukemia and in the experiment with NCI-H522 lung was more than 100 µM in each case.

For `O=C(O)CCCCCO`, the TGI in the experiment on ACHN renal, with CAKI-1 renal, in the experiment on HCC-2998 colon, with KM12 colon, in the experiment with LOX IMVI melanoma and in the experiment with M14 melanoma was more than 100 µM each time. The TGI in the experiment with MOLT-4 leukemia, in the experiment with NCI-H522 lung and with TK-10 renal was more than 100 µM each time.

For the compound `COc1cc2c(c(OC)c1OC)-c1ccc(SC)c(=O)cc1[C@@H](NCc1cccc(C#N)c1)CC2`, the GI50 in the experiment on ACHN renal was 0.0134 µM; in the experiment with KM12 colon it was less than 0.0075 µM; in the experiment with LOX IMVI melanoma it was less than 0.0075 µM; with M14 melanoma, less than 0.0075 µM; in the experiment on MOLT-4 leukemia it was less than 0.0075 µM; in the experiment on NCI-H522 lung, less than 0.0075 µM. Further, the GI50 in the experiment on TK-10 renal was 16.2 µM. The TGI was more than 75 µM with ACHN renal; more than 75 µM with CAKI-1 renal; 0.0515 µM in the experiment with HCC-2998 colon; 0.0509 µM and 0.0128 µM in the experiment with KM12 colon; 16.6 µM in the experiment on LOX IMVI melanoma; 69.2 µM with MOLT-4 leukemia. The TGI with NCI-H522 lung was 0.0377 µM and < 0.0075 µM; with TK-10 renal, more than 75 µM.

The values above are taken from PubChem BioAssay (NCI).
